Data as given in patent publication US20050209157A1, “Short bioactive peptides and methods for their use” (priority 2001, published 2005).
No end group written: not given here.

Assays:
H1299 = test: Anti-cancer assay, MTT, LD50; assay type: cell-based; settings: 24 hours with peptide, lung large cell carcinoma
Description: (§1) Numbers are LD50 values (μg/mL).

HeLaS3 = test: Anti-cancer assay, MTT, LD50; assay type: cell-based; settings: 24 hours with peptide, cervical carcinoma
Description: as §1

BMKC = test: Anti-cancer assay, MTT, LD50; assay type: cell-based; settings: BMKC cloned melanoma line, 24 hours with peptide
Description: as §1

PC3 = test: Anti-cancer assay, MTT, LD50; assay type: cell-based; settings: 24 hours with peptide, prostate adenocarcinoma
Description: as §1

MCF7 = test: Anti-cancer assay, MTT, LD50; assay type: cell-based; settings: MCF7 breast adenocarcinoma line, MTT, 24 hours with peptide
Description: as §1

SW480 = test: Anti-cancer assay, MTT, LD50; assay type: cell-based; settings: SW480 colon adenocarcinoma line, 24 hours with peptide
Description: as §1

[1] = tested on: Pseudomonas aeruginosa ATCC 9027; test: Antimicrobial assay I, MIC by OD measurement; assay type: cell-based; settings: 37° C. for 24 hours, absorbance 620 nm
Description: (§2) The data for the following antimicrobial assay of the peptides have been obtained by making OD measurements in in vitro cell culture experiments with and without added peptide. The protocol used is as follows.
(§3) Cell lines included Staphylococcus aureus ATCC 6538 or 25923, Pseudomonas aeruginosa ATCC 9027 or 27853. Medium used were Antibiotic Medium 3 (Difco), Antibiotic Medium 2 (Difco), and 0.85% saline. Controls used were physiological saline, and gentamycin at 50, 25, 10, 5, 1, and 0.1 ppm.
(§4) Absorbance was read at 620 nm after shaking to resuspend cells.
(§5) Staph6538 is Staphylococcus aureus ATCC accession number 6538; paerug9027 is Pseudomonas aeruginosa ATCC accession number 9027, yeast is Saccharomyces cerevisiae.

[2] = tested on: Staphylococcus aureus ATCC 6538; test: Antimicrobial assay I, MIC by OD measurement; assay type: cell-based; settings: 37° C. for 24 hours, absorbance 620 nm
Description: as §2, §3, §4, §5

in vitro [3] = assay type: cell-based, human; settings: human, human red blood cells, pH 7, hemolytic assay, concentration at 50% hemolysis, 1 hour at 37° C.; read-out: LD50
Protocol: This hemolytic assay is based upon that presented in Journal of Peptide Research 53: 82-90 (1999). […] All procedures were performed according to safety protocols pertaining to the handling and disposal of human body fluids.
Red blood cells (RBCs) were washed three times with PBS (35 mM phosphate buffer 0.15 M NaCl, pH 7.0). RBCs suspended in PBS (0.4% (v/v); about 10 ml per 15 peptides) were prepared. Suspensions (100 μl) were aliquoted to each sample and control tube. Serially diluted peptide solutions (100 μl) were pipetted into the sample tubes. Negative control tubes contained 100 μl PBS; positive control tubes contained 100 μl 1% Triton-X100 detergent. All tubes were incubated for 1 hour at 37° C. The tubes were removed from the incubator and centrifuged at 1000 g for 5 minutes. Supernatant (100 μl) was pipetted to a 96-well polyvinyl chloride plate. The absorbance at 414 nm (A414) was measured, and used to calculate the percent hemolysis according to the following formula. [formula]

WI38 = settings: MTT, 24 hours with peptide; for WI38 LD50: normal fibroblast line; for LD50 WI38: WI38 normal lung fibroblast line
in vitro [4] = settings: human, WI38 normal lung fibroblast cells, LD50 WI38, WI38 normal lung fibroblast line, MTT, 24 hours with peptide
[5] = tested on: yeast (Saccharomyces cerevisiae); test: Antimicrobial assay I, yeast assay in RPMI 1640; assay type: cell-based; settings: RPMI 1640 media
Protocol: as §2, §4
The yeast assay was performed in RPMI 1640 media (pH 7.0 at 25° C.).
as §5

Molecule	H1299 LD50 (H1299)	HeLaS3 LD50 (HeLaS3)	LD50 BMKC (BMKC)	PC3 LD50 (PC3)	LD50 MCF7 (MCF7)	LD50 SW480 (SW480)	paerug9027 (MIC) [1]	staph6538 (MIC) [2]	HC50 at 1 h (in vitro [3]) [µg/mL]	WI38 LD50 (WI38)	CC50 at 24 h (in vitro [4]) [µg/mL]	yeast (MIC or MFC) [5]	LD50 WI38 (WI38)
VAKLLAKLAKKLL-NH2 [P48]	17 µg/mL	44 µg/mL	43 µg/mL	32 µg/mL	23 µg/mL	47 µg/mL	5 µg/mL	5 µg/mL	200	41 µg/mL	41	25 µg/mL	
KWKLFKKIGAVLKVL-NH2 [P53, reference compound]	65 µg/mL	30 µg/mL	40 µg/mL	40 µg/mL	45 µg/mL		15 µg/mL	5 µg/mL	20	32 µg/mL	32	50 µg/mL	
ILPWKWPWWPWRR-COOH [P91, reference compound]	64 µg/mL	20 µg/mL	180 µg/mL	31 µg/mL	12 µg/mL	30 µg/mL	> (> indicates greater than 200 μg/mL)	10 µg/mL				> (> indicates greater than 200 μg/mL)	
FAKLLAKLAKAKL-NH2 [P65]	450 µg/mL	210 µg/mL	250 µg/mL	470 µg/mL	475 µg/mL	345 µg/mL	50 µg/mL	15 µg/mL	950	320 µg/mL	320	200 µg/mL	
FAKLLAKLAKKGL-NH2 [P152]	410 µg/mL	> (> indicates greater than 1000)	> (> indicates greater than 1000)	> (> indicates greater than 1000)	430 µg/mL	740 µg/mL	50 µg/mL	100 µg/mL	880	620 µg/mL	620	100 µg/mL	
LKKLAKLALAF-NH2 [P179]	> (> indicates greater than 1000)	> (> indicates greater than 1000)	920 µg/mL	> (> indicates greater than 1000)	555 µg/mL	> (> indicates greater than 1000)	50 µg/mL	50 µg/mL	850	540 µg/mL	540	100 µg/mL	
CC[C@H](C)[C@H](NC(=O)CN)C(=O)NCC(=O)N[C@@H](C)C(=O)N[C@H](C(=O)N[C@@H](CC(C)C)C(=O)N[C@@H](CCCCN)C(=O)N[C@H](C(=O)N[C@@H](CC(C)C)C(=O)N[C@H](C(=O)N[C@H](C(=O)NCC(=O)N[C@@H](CC(C)C)C(=O)N1CCC[C@H]1C(=O)N[C@@H](C)C(=O)N[C@@H](CC(C)C)C(=O)N[C@H](C(=O)N[C@@H](CO)C(=O)N[C@@H](Cc1c[nH]c2ccccc12)C(=O)N[C@H](C(=O)N[C@@H](CCCCN)C(=O)N[C@@H](CCCNC(=N)N)C(=O)N[C@@H](CCCCN)C(=O)N[C@@H](CCCNC(=N)N)C(=O)N[C@@H](CCC(N)=O)C(=O)N[C@@H](CCC(N)=O)C(N)=O)[C@@H](C)CC)[C@@H](C)CC)[C@@H](C)O)[C@@H](C)O)C(C)C)C(C)C [P108, reference compound]							> (> indicates greater than 200 μg/mL)	5 µg/mL				25 µg/mL	
FAFGKGIGKIGKKGL-NH2 [P138]	> (> indicates greater than 1000)	> (> indicates greater than 1000)	> (> indicates greater than 1000)	> (> indicates greater than 1000)	> (> indicates greater than 1000)	> (> indicates greater than 1000)	> (> indicates greater than 200 μg/mL)	> (> indicates greater than 200 μg/mL)	20	> (> indicates greater than 1000)		> (> indicates greater than 200 μg/mL)	> (> indicates greater than 1000)
KWKLAKKALALL-NH2 [P142]	115 µg/mL	55 µg/mL	38 µg/mL	60 µg/mL	44 µg/mL	38 µg/mL	50 µg/mL	100 µg/mL	900	73 µg/mL	73	100 µg/mL	
FAKKLAKKLKKLAKKLAKKWKL-NH2 [P70]	63 µg/mL	28 µg/mL	94 µg/mL	82 µg/mL	44 µg/mL	11 µg/mL	> (> indicates greater than 200 μg/mL)	10 µg/mL	80	34 µg/mL	34	100 µg/mL	
FALALKA-NH2 [P141, FALALKA-NH2]	> (> indicates greater than 1000)	> (> indicates greater than 1000)	465 µg/mL		430 µg/mL	560 µg/mL	50 µg/mL	15 µg/mL	900	420 µg/mL	420	200 µg/mL	
FAKKLAKKLKKLAKKLIGAVLKV-OH [P99]							> (> indicates greater than 200 μg/mL)	100 µg/mL	25			> (> indicates greater than 200 μg/mL)	
WALAL-NH2 [P184, WALAL-NH2]	370 µg/mL	302 µg/mL	600 µg/mL	570 µg/mL	260 µg/mL	440 µg/mL	100 µg/mL	25 µg/mL	850	800 µg/mL	800	100 µg/mL	
KLLKLLLKLYKKLLKLL-OH [P156]		> (> indicates greater than 1000)	520 µg/mL	260 µg/mL	135 µg/mL	345 µg/mL	> (> indicates greater than 200 μg/mL)	15 µg/mL	10	230 µg/mL	230	> (> indicates greater than 200 μg/mL)	
FALALKALKKALKKLKKALKKAL-OH [P1, reference compound]							10 µg/mL	5 µg/mL	100			> (> indicates greater than 200 μg/mL)	
FALLKL-NH2 [P168, FALLKL-NH2]	> (> indicates greater than 1000)	> (> indicates greater than 1000)	590 µg/mL	> (> indicates greater than 1000)	630 µg/mL	> (> indicates greater than 1000)	100 µg/mL	50 µg/mL	600	> (> indicates greater than 1000)		> (> indicates greater than 200 μg/mL)	> (> indicates greater than 1000)
